Holding throughout (assay): DTP human tumour cell line panel, 48 h
Assay [1] relates to M14 melanoma.
Assay [2] relates to SF-295 CNS.
Assay [3] has as its system BT-549 breast.
In assay [4] the test system is TK-10 renal.
Assay [5] deals with CAKI-1 renal.
The test system of assay [6] is MCF7 breast.
Assay [7] deals with PC-3 prostate.
Assay [8] concerns MOLT-4 leukemia.
The test system of assay [9] is NCI-H226 lung.
Assay [10] has as its system RPMI-8226 leukemia.

Structures are written as SMILES.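 Results reflect a 48-hour exposure of cells in 96-well plates to compound at five concentrations. Here, GI50 denotes the concentration required for 50% inhibition of growth. At the TGI there is no net growth.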

By TGI is commonly meant the concentration giving total growth inhibition. Higher therefore signals lower sensitivity of the cells. On to `Nc1cc(F)ccc1CC(=O)O`, for which the total growth inhibition concentration (TGI) in assay [1], in [2], in [3], in [4], in [5] and in assay [6] was > 100 µM in each case. The total growth inhibition concentration (TGI) in assay [7], in assay [8], in [9] and in assay [10] was > 100 µM each time.
Turning to `O=C(O)/C=C/C(=O)N1Cc2cc3ccccc3nc2C1`, the TGI in assay [1], in assay [2], in assay [3], in assay [4], in assay [5] and in assay [6] was > 100 µM throughout. Besides, the TGI in assay [7], in assay [8], in [9] and in assay [10] was > 100 µM throughout.
As a reminder, the GI50 is the concentration that inhibits growth by half. `COC1=CC(c2ccc[nH]2)=N/C1=C\c1[nH]c(C)c(CC(=O)OCc2ccccc2)c1CCC(=O)OCc1ccccc1`: the GI50 in assay [1] was 0.223 µM; in assay [2], 0.305 µM; in assay [3] it was 0.37 µM; in [4], 0.406 µM; in assay [5] it was 0.343 µM; in [6], 0.372 µM. The 50% growth inhibitory concentration (GI50) in assay [7] is 0.346 µM; in assay [8], 0.309 µM; in assay [9], 0.335 µM; in assay [10], 0.234 µM. For the same compound, the total growth inhibition concentration (TGI) in assay [1] is 0.573 µM; in [2], 1.3 µM; in [3] it was 2.68 µM; in assay [4], 2.1 µM; in assay [5], 2.21 µM; in [6] it was 5.5 µM. The total growth inhibition concentration (TGI) came out at 12.6 µM in [7], 2.01 µM in assay [8], 2.3 µM in assay [9] and 0.76 µM in assay [10].
On to `CCOC(=O)c1ccccc1OC(=O)NNc1ccccc1`, for which the TGI in assay [1] was > 100 µM; in assay [2], > 37.4 µM; in assay [3], > 100 µM; in assay [4], > 100 µM; in assay [5] it was > 100 µM; in assay [6] it was > 100 µM. In addition, the total growth inhibition concentration (TGI) in assay [7], in [8], in [9] and in assay [10] was > 100 µM in each case. The concentration for 50% growth inhibition (GI50) is 0.333 µM in assay [2]; 3.56 µM in [3]; 7.05 µM in [4]; 0.377 µM in [5]; 8.14 µM in assay [6]; 7.91 µM in assay [7]. Also, the GI50 in assay [8] was 0.465 µM; in assay [9], > 23.7 µM; in assay [10], 1.11 µM.
Consider `CCC(CC)c1nc(Nc2ccc(C(=O)OC)cc2)c2ccccc2n1`, for which the GI50 in [1] is 10 µM; in assay [2], > 18.8 µM; in assay [3] it was 31.7 µM; in assay [4], 13.2 µM; in assay [5], 5.74 µM; in [6], 24.2 µM. The GI50 in assay [7] was 7.8 µM; in assay [8] it was 1.41 µM; in [9], 7.93 µM; in assay [10], 5.08 µM. Further, the concentration for total growth inhibition (TGI) is 21.6 µM in assay [1]; > 26 µM in [2]; > 50 µM in [3]; 25.7 µM in [4]; 11.8 µM in assay [5]; > 50 µM in assay [6]. Also, the TGI in [7] came out at 17.1 µM; in [8], 3.67 µM; in assay [9], 22.8 µM; in assay [10] it was 22.9 µM.
In the case of `CCOC(=O)[C@@H](C)C[C@H](Cc1ccccc1)NC(=O)c1nc([C@@H](C[C@H](C(C)C)N(C)C(=O)[C@@H](NC(=O)[C@H]2CCCCN2C)C(C)C)OC(C)=O)sc1CCOCc1ccccc1`, the GI50 in assay [1] was 0.0689 µM; in [2], 0.0499 µM; in assay [3] it was 0.0792 µM; in assay [4] it was 0.631 µM; in assay [5], 0.128 µM; in assay [6] it was 0.0404 µM. Besides, the concentration for 50% growth inhibition (GI50) in [7] was 0.0521 µM; in assay [8] it was 0.132 µM; in assay [9], 0.107 µM; in assay [10] it was 0.107 µM. Also, the total growth inhibition concentration (TGI) in assay [1] is 0.727 µM; in [2], 1.36 µM; in [3], 0.918 µM; in assay [4], 5.28 µM; in [5], 2.18 µM; in assay [6] it was 4.33 µM. In addition, the TGI in assay [7] amounted to 2.41 µM; in assay [8], 5.61 µM; in [9], 1.05 µM; in assay [10] it was 2.53 µM.
As to `N#Cc1c(NC(=O)NCc2ccccc2)sc2c1CCCC2`, the GI50 was 0.421 µM in assay [1]; 0.549 µM in assay [2]; 1.25 µM in [3]; 14.6 µM in [4]; 0.776 µM in [5]; 0.363 µM in assay [6]. For the same compound, the GI50 in [7] was 0.559 µM; in assay [8], 0.487 µM; in [9], 1.3 µM; in assay [10] it was 0.538 µM. For the same compound, the TGI was > 100 µM in assay [1]; 37.7 µM in [2]; > 100 µM in assay [3]; > 100 µM in assay [4]; > 100 µM in assay [5]; > 100 µM in assay [6]. The TGI in assay [7] was > 100 µM; in [8], > 100 µM; in [9], > 41.3 µM; in [10] it was > 100 µM.
Regarding `COC1C(CO)OC(n2c3ccccc3c3c4c(c5c6ccccc6[nH]c5c32)C(=O)NC4=O)C(O)C1O` (stereo not drawn), the GI50 in assay [1] is 0.0441 µM; in [2] it was 0.129 µM; in assay [3], 0.12 µM; in assay [4], 0.143 µM; in [5] it was < 0.0184 µM; in assay [6] it was 0.0336 µM. In addition, the 50% growth inhibitory concentration (GI50) was 0.206 µM in [7], 0.0202 µM in [8], 0.0113 µM in assay [9] and 2.22 µM in [10]. Besides, the total growth inhibition concentration (TGI) turned out to be 0.347 µM in [1]; 0.673 µM in assay [2]; 1.85 µM in assay [3]; 0.548 µM in [4]; 0.0937 µM in assay [5]; 2.07 µM in assay [6]. Besides, the TGI is 7.06 µM in assay [7], 0.108 µM in [9] and 25.2 µM in [10].

These data come from PubChem BioAssay (NCI).
